tested on: Atoh1 expression in mouse cerebellar neural precursor cells; assay: Atoh1 induction assay in mouse cerebellar neural precursor cells (NPCs), Atoh1-GFP reporter; format: cell-based; conditions: 10 doses 50 μM to 200 nM, 72 hours treatment, DMSO control = 1, more than 5 considered significant, read-out: fold difference (maximum fold difference of GFP average intensity in cell nuclei over the DMSO control)
Procedure: Compounds of the present disclosure were assessed for their ability to increase the Atoh1 expression in mouse cerebellar neural precursor cells. The ability of compounds of the present disclosure to induce new hair cell formation was assessed in ex vivo hair cell induction assay using 6-day-postnatal mouse cochlea explants with hair cell damage.
Atoh1 Induction Assay in Mouse Cerebellar Neural Precursor Cells (NPCs)
Atoh1 induction assay was conducted with in vitro cultured cerebellar neural precursor cells isolated from neonatal transgenic Atoh1-GFP mice. Atoh1 expression is mainly regulated by the enhancer, and the nuclear GFP was driven by the cloned enhancer sequence at 3′ of Atoh1 which had high conservation among mammalians. So Atoh1 induction could be reflected by GFP activation in cerebellar neural precursor cells (Helms et al., Development 2000; 127: 1185-1196; Lumpkin et al., Gene Expression Patterns 2003; 3: 389-395). Postnatal 3 days pups were dissected for cerebellum tissue isolation. The cerebellum tissue was cut into small pieces, and dissociated with 0.05% Trypsin for about 10 minutes at 37° C., and then filtered with a 70 uM cell strainer. The cells were cultured as neuropsheres for the first 2 days in ultra-low attachment dish/well-plate with DMEM/F12+1% N2 &2% B27 with 1% P/S, 20 ng/ml rhFGF2 and 20 ng/ml rhEGF (R&D Systems). Then the spheres were plated to the matrigel (1:30 diluted in DMEM/F12)-coated tissue culture dish for monolayer culture. After 4.5-5.5 days culture in vitro (DIV), cells were dissociated with 0.05% trypsin into single cells, and frozen after cell number calculation.
The cerebellar neural precursor cells (NPCs) were re-thawed from stock and cultured for another 2 days before used for Atoh1 induction assay. On the first day of assay, NPCs were seeded into matrigel-coated 384 well plates (Black view-plate, PE) at 2500 cells/well. After over-night culture, the NPCs were treated with representative compounds of the present disclosure with 1:2 serial dilutions for 10 doses, from 50 μM to 200 nM, with DMSO as negative control. After 72 hours treatment without medium change, the cells were fixed with 4% formalin for staining. Assay plates were stained with GFP antibody (Abcam, #13970, 1:1000) to amplify endogenous GFP signal and then read by Cellomics.

**Q.** How did the maximal fold induction turn out when NC(=O)C1CN(CCC(F)(F)CCNC(=O)c2cc(-c3cccs3)on2)C1 [Example 75, N-(5-(3-Carbamoylazetidin-1-yl)-3,3-difluoropentyl)-5-(thiophen-2-yl)isoxazole-3-carboxamide] was run?
**A.** 20.6

**Q.** How did the maximal fold induction turn out when NC(=O)C1CN(CCC(F)(F)CCNC(=O)c2cc(-c3ccc(F)cc3)on2)C1 [Example 76, N-(5-(3-Carbamoylazetidin-1-yl)-3,3-difluoropentyl)-5-(4-fluorophenyl)isoxazole-3-carboxamide] was run?
**A.** 20.4

**Q.** For N#CCNC(=O)C1CN(CCCCCNC(=O)c2cc(-c3cccs3)on2)C1 [Example 77, N-(5-(3-((Cyanomethyl)carbamoyl)azetidin-1-yl)pentyl)-5-(thiophen-2-yl)isoxazole-3-carboxamide], which maximal fold induction is on record?
**A.** 24.1

**Q.** How did the maximal fold induction turn out when O=C(NCCCCCN1CC(C(=O)NCCO)C1)c1cc(-c2cccs2)on1 [Example 78, N-(5-(3-((2-Hydroxyethyl)carbamoyl)azetidin-1-yl)pentyl)-5-(thiophen-2-yl)isoxazole-3-carboxamide] was run?
**A.** 23.1

**Q.** How did the maximal fold induction turn out when O=C(NCCCCCN1CC(C(=O)N[C@H]2C[C@@H](O)C2)C1)c1cc(-c2cccs2)on1 [Example 79, N-(5-(3-(((1,3-cis)-3-Hydroxycyclobutyl)carbamoyl)azetidin-1-yl)pentyl)-5-(thiophen-2-yl)isoxazole-3-carboxamide] was run?
**A.** 26.6

**Q.** For O=C(NCCCCCN1CC(C(=O)N[C@H]2C[C@H](O)C2)C1)c1cc(-c2cccs2)on1 [Example 80, N-(5-(3-(((1,3-trans)-3-Hydroxycyclobutyl)carbamoyl)azetidin-1-yl)pentyl)-5-(thiophen-2-yl)isoxazole-3-carboxamide], which maximal fold induction is on record?
**A.** 47.2

**Q.** For O=C(NCCCCCN1CC(C(=O)NCCCO)C1)c1cc(-c2cccs2)on1 [Example 81, N-(5-(3-((3-Hydroxypropyl)carbamoyl)azetidin-1-yl)pentyl)-5-(thiophen-2-yl)isoxazole-3-carboxamide], which maximal fold induction is on record?
**A.** 33

**Q.** For O=C(NCCCCCN1CC(C(=O)NC2CCC(O)C2)C1)c1cc(-c2cccs2)on1 (stereo not drawn) [Example 82, N-(5-(3-((3-Hydroxycyclopentyl)carbamoyl)azetidin-1-yl)pentyl)-5-(thiophen-2-yl)isoxazole-3-carboxamide], which maximal fold induction is on record?
**A.** 31.9

**Q.** For O=C(NCCCCCN1CC(C(=O)NC2CCCC2O)C1)c1cc(-c2cccs2)on1 (stereo not drawn) [Example 83, N-(5-(3-((2-Hydroxycyclopentyl)carbamoyl)azetidin-1-yl)pentyl)-5-(thiophen-2-yl)isoxazole-3-carboxamide], which maximal fold induction is on record?
**A.** 34.4

**Q.** With N#CCCNC(=O)C1CN(CCCCCNC(=O)c2cc(-c3cccs3)on2)C1 [Example 84, N-(5-(3-((2-Cyanoethyl)carbamoyl)azetidin-1-yl)pentyl)-5-(thiophen-2-yl)isoxazole-3-carboxamide] as the compound, how does the maximal fold induction read?
**A.** 35.1

**Q.** CNC(=O)C1CN(CCCCCNC(=O)c2cc(-c3ccc(F)cc3)on2)C1 [Example 85, 5-(4-Fluorophenyl)-N-(5-(3-(methylcarbamoyl)azetidin-1-yl)pentyl)isoxazole-3-carboxamide] was tested. Which maximal fold induction did it give?
**A.** 20.7

**Q.** For CCNC(=O)C1CN(CCCCCNC(=O)c2cc(-c3ccc(F)cc3)on2)C1 [Example 86, N-(5-(3-(Ethylcarbamoyl)azetidin-1-yl)pentyl)-5-(4-fluorophenyl)isoxazole-3-carboxamide], which maximal fold induction is on record?
**A.** 36.7

**Q.** With N#CCCNC(=O)C1CN(CCCCCNC(=O)c2cc(-c3ccc(F)cc3)on2)C1 [Example 87, N-(5-(3-((2-Cyanoethyl)carbamoyl)azetidin-1-yl)pentyl)-5-(4-fluorophenyl)isoxazole-3-carboxamide] as the compound, how does the maximal fold induction read?
**A.** 27.8

**Q.** N#CCNC(=O)C1CN(CCCCCNC(=O)c2cc(-c3ccc(F)cc3)on2)C1 [Example 88, N-(5-(3-((Cyanomethyl)carbamoyl)azetidin-1-yl)pentyl)-5-(4-fluorophenyl)isoxazole-3-carboxamide] was tested. Which maximal fold induction did it give?
**A.** 9.3

**Q.** With O=C(NCCCCCN1CC(C(=O)N[C@H]2C[C@H](O)C2)C1)c1cc(-c2ccc(F)cc2)on1 [Example 89, 5-(4-Fluorophenyl)-N-(5-(3-(((1,3-trans)-3-hydroxycyclobutyl)carbamoyl)azetidin-1-yl)pentyl)isoxazole-3-carboxamide] as the compound, how does the maximal fold induction read?
**A.** 11

**Q.** With O=C(NCCCCCN1CC(C(=O)NCCO)C1)c1cc(-c2ccc(F)cc2)on1 [Example 90, 5-(4-Fluorophenyl)-N-(5-(3-((2-hydroxyethyl)carbamoyl)azetidin-1-yl)pentyl)isoxazole-3-carboxamide] as the compound, how does the maximal fold induction read?
**A.** 19.1

**Q.** O=C(NCCCCCN1CC(C(=O)N[C@H]2CCC[C@@H]2O)C1)c1cc(-c2ccc(F)cc2)on1 [Example 91, 5-(4-Fluorophenyl)-N-(5-(3-(((1S,2S)-2-hydroxycyclopentyl)carbamoyl)azetidin-1-yl)pentyl)isoxazole-3-carboxamide] was tested. Which maximal fold induction did it give?
**A.** 34.5

**Q.** With O=C(NCCCCCN1CC(C(=O)N[C@H]2C[C@@H](O)C2)C1)c1cc(-c2ccc(F)cc2)on1 [Example 92, 5-(4-Fluorophenyl)-N-(5-(3-(((1,3-cis)-3-hydroxycyclobutyl)carbamoyl)azetidin-1-yl)pentyl)isoxazole-3-carboxamide] as the compound, how does the maximal fold induction read?
**A.** 13

**Q.** With CC(=O)C1CN(CCCCCNC(=O)c2cc(-c3cccs3)on2)C1 [Example 93, N-(5-(3-Acetylazetidin-1-yl)pentyl)-5-(thiophen-2-yl)isoxazole-3-carboxamide] as the compound, how does the maximal fold induction read?
**A.** 12.4

**Q.** O=C(NCCCCCN1CCn2cncc2C1)c1cc(-c2cccs2)on1 [Example 94, N-(5-(5,6-dihydroimidazo[1,5-a]pyrazin-7(8H)-yl)pentyl)-5-(thiophen-2-yl)isoxazole-3-carboxamide] was tested. Which maximal fold induction did it give?
**A.** 20.6

**Q.** Which maximal fold induction does the source give for O=C(NCCCCCN1CC(c2ncc[nH]2)C1)c1cc(-c2cccs2)on1 [Example 95, N-(5-(3-(1H-imidazol-2-yl)azetidin-1-yl)pentyl)-5-(thiophen-2-yl)isoxazole-3-carboxamide] here?
**A.** 21.8

— patent publication US20220117945A1, “ISOXAZOLE CARBOXAMIDE COMPOUNDS AND USES THEREOF” (NOVARTIS AG, priority 2017, published 2022)
